The source of these data is US8445006B2, “Biomolecular coating for implants” (Georgia Tech Research Corporation, priority 2006, dated 2013).

For one assay, the system named is rat tibia cortical bone. Briefly: Rat tibia cortical bone implantation, histology and bone-implant contact histomorphometry. The assay is classed as in vivo. To be noted: 4 weeks. The procedure: Commercially pure titanium implants (FIG. 4) were sonicated in de-ionized water for 20 min to remove surface debris. Implants were then dipped in 4% HF for 30 sec to remove the existing oxide layer and then incubated in 35% HNO3 for 30 min at 50° C. to regenerate a new oxide coating. Samples were transferred to 1.8 N NaOH for 1 min to terminate the oxidation reaction. Implants were then rinsed and boiled in de-ionized water for 1 h. To create the bioactive coating, the implants were incubated in 20 μg/ml GFOGER peptide (SEQ ID NO:1) or type I collagen solution for 1 h. Control titanium rods were incubated in PBS.
Implantations were conducted in accordance with an IACUC-approved protocol. Both hind legs of anesthetized, mature Sprague-Dawley male rats (250-350 g) were shaved and scrubbed with alcohol. The medial aspect of the proximal tibial metaphysis was exposed through an antero-medial skin incision, leaving the medial collateral ligament intact. Using a saline-cooled drill, two defects were created in each tibia. Sterile implant rods were press fit into the defects. Periosteum was mobilized and sutured over the implantation site, and the skin was closed with wound clips. Subjects were euthanized after 4 weeks and proximal tibiae were fixed in neutral buffered formalin for histology or recovered without fixation and maintained in PBS-moistened gauze for immediate mechanical testing.
Excised tibiae were fixed in 10% neutral buffered formalin for 1 week. […] Ground sections of 50-80 μm were generated using the Exakt Grinding System™. Two longitudinal ground sections were generated per tibia, each containing two titanium plugs inserted transverse to the tibia's long axis. Sections were then stained with Sanderson's Rapid Bone Stain™ and a van Gieson counter stain. Bone implant contact (BIC) was measured as the percentage of implant's circumference that was in direct contact with bone tissue (Adobe Photoshop® CS imaging software).
To evaluate the performance of the bioactive GFOGER peptide (SEQ ID NO:1) treatment in vivo, osseointegration in a rat tibia cortical bone model was quantified using quantitative histomorphometry and pull-out mechanical testing. A cylindrical titanium implant rod with a tapered stop collar was designed (FIG. 4). The tapered head ensures that all implants are inserted into the bone at the same depth, guaranteeing uniform bone contact among treatments. Using a saline-cooled drill, two defects 2 mm in diameter were created in the medial aspect of the proximal tibial metaphysis. Implant rods consisting of GFOGER peptide (SEQ ID NO:1) functionalized or untreated (control) titanium were press fit into the cortical defects. After four weeks, the rat tibiae were harvested and evaluated for bone apposition by histological staining and mechanical integration by pull-out testing. […] Representative micrographs show 50-80 μm longitudinal ground sections of rat tibia stained with Sanderson's Rapid Bone Stain™ and van Gieson counterstain. Cells stain dark to light blue, soft tissue elements stain blue-green, and bone matrix stains yellow orange to autumn orange.
Osseointegration of implants in a rat tibia cortical bone model was quantified to evaluate the in vivo performance of the engineered titanium surfaces in bone healing. Importantly, this in vivo model provides a rigorous platform to evaluate implant coating function in a relevant orthopaedic setting. Two 2.0-mm diameter defects were drilled into the medial aspect of the proximal tibial metaphysis using a saline cooled drill. Tapered cylindrical implants (FIG. 4) of clinical-grade titanium were press-fit into the cortical defects.

Assay [1] relates to HFN7.1 monoclonal antibody. The assay is described as follows: ELISA with HFN7.1 monoclonal antibody. The assay is classed as binding. As to conditions: passively adsorbed ligands, various coating concentrations. On the procedure:
An ELISA was used to probe for the biological activity of the FNIII7-10 fragment compared to pFN. FNIII7-10 or pFN was adsorbed onto either uncoated or Neutravidin-coated (100 μg/ml) 96-well black U-well Dynex plates at various concentrations for 30 min. Following incubation in blocking buffer (0.25% BSA, 0.1 M EDTA, 2.5% Tween-20, 0.00125% NaN3), HFN7.1 antibody (0.6 μg/ml in blocking buffer) was added for 1 h at 37° C., and, after washing with blocking buffer, surfaces were incubated in alkaline phosphatase-conjugated anti-mouse IgG (0.6 μg/ml) for 1 h at 37° C. Washed surfaces were exposed to 4-methylumbelliferyl phosphate (25 mg/ml in 10 mM diethanolamine, pH 9.5). The resulting fluorescence was quantified using an HTS 7000 Plus plate reader (Perkin Elmer, Foster City, Calif.) at 360 nm excitation and 465 nm emission.
For orientation: In an ELISA, binding on a coated surface is turned into a signal by an enzyme label.

A further assay deals with MC3T3-E1 cells. The assay is described as follows: Centrifugation cell adhesion assay on ligand-tethered SAMs. The assay is classed as cell-based, murine. The procedure:
MC3T3-E1 murine immature osteoblast-like cells (Riken Cell Bank, Hirosawa, Japan) were used because of their expression of multiple integrins, including alpha5beta1, alpha2beta1, and alphaVbeta3. Cells were maintained at 37° C. in α-MEM supplemented with 10% FBS and 1% penicillin-streptomycin and passaged every 2-3 days via standard culture techniques.
Self-assembled monolayers (SAMs) of alkanethiols on gold were used to present well-defined, ordered surfaces with anchoring groups within a non-fouling background. Tri(ethylene glycol)-terminated alkanethiol (HS—(CH2)11—(OCH2CH2)3—OH; EG3) and carboxylic acid-terminated alkanethiol (HS—(CH2)11—(OCH2CH2)6—OCH2COOH; EG6-COOH) were previously synthesized and characterized. Gold-coated substrates were prepared by sequential deposition of titanium (100 Å) and gold (200 Å) films via an electron beam evaporator (Thermionics Laboratories, Hayward, Calif., 2×10^−6 Torr, 1 A/s) onto clean 6-well plate lids or glass coverslips. Mixed SAM surfaces were prepared on substrates by immersing in a 1.0 mM mixed solution of EG3/EG6-COOH thiols (4 h). Peptide ligands were tethered using standard peptide chemistry. Briefly, following washing in ethanol and ultrapure H2O, SAMs were incubated in 2.0 mM EDC and 5.0 mM NHS in 0.1 M 2-(N-morpho)-ethanesulfonic acid and 0.5 M NaCl (pH 6.0), and subsequently immersed in a 20 mM solution of 2-mercaptoethanol in deionized H2O. Adhesive ligands in PBS were then incubated on the activated supports for 30 min and the unreacted surface NHS esters were then quenched in 20 mM glycine. Finally, the surfaces were blocked in 1% heat-denatured bovine serum albumin (BSA) and then incubated overnight in DPBS to reduce nonspecific protein adsorption.
A modification of a centrifugation assay was used to apply controlled detachment forces to cells adhering to engineered surfaces. Multi-wells of engineered surfaces were created on gold-coated polystyrene plate lids using silicone gaskets (Grace Bio-Labs, Bend, Oreg.). Mixed SAMs were assembled and ligands tethered at varying densities. MC3T3-E1 cells were labeled with […] calcein-AM, a membrane-permeable green fluorescent dye, in 2 mM dextrose-DPBS for 30 min and resuspended in α-MEM with 10% FBS. Cells were seeded onto the surfaces at 200 cells/mm^2, and allowed to attach for 1 h at 37° C. For blocking antibody experiments, cells were incubated in the presence of function-perturbing antibodies (10 μg/ml) for 10 min with gentle agitation prior to cell seeding. Before centrifugation, cell images were taken using a Nikon TE-300 fluorescence microscope and Spot RT digital camera. Wells were then filled completely with dextrose-PBS, sealed, inverted, and centrifuged for 5 min at a prescribed speed on a Beckman Allegra 6 centrifuge (GH 3.8 rotor) to apply normal detachment forces. Media was then gently aspirated from the wells, and wells were refilled for post-spin image collection. Post/pre-spin cell ratios were determined by image analysis, and this adhesive fraction was plotted against ligand surface density to obtain cell adhesion profiles.

Turning to “type I collagen: native type I collagen coating on titanium implants”, the “bone apposition (bone implant contact, BIC)” value in the assay with rat tibia cortical bone (passively coated implants vs untreated titanium) is “COL>Ti”. In the assay with rat tibia cortical bone (passively coated titanium implants (20 μg/ml)), the “histology: peri-implant bone mineral” value is “Less bone mineral was visible”.

As for “pFN: human plasma fibronectin obtained from Invitrogen”, the “HFN7.1 binding (biological activity)” value in assay [1] is listed as “increased with protein coating concentration”.

On to “GRGDG13PHSRN (GRGDGGGGGGGGGGGGGPHSRN) [RGD-PHSRN]”, for which, in the assay with MC3T3-E1 cells (ligand tethered to SAMs, MC3T3-E1), the “ADH50 (ligand density required for half-maximal adhesion)” value came out at 1950 fmol/cm^2. Also, the “adhesion with blocking antibodies against α5β1 integrin” value in the assay with MC3T3-E1 cells (maximum ligand density, normalized to unblocked controls) is “only slightly reduced adhesion”.
